Literature values, collected in patent US20200030265A1, “ANTI[…] AND USES THEREOF” (CSP PHARMA, INC., priority 2017, published 2020).

Test system: ASDs mouse model
Details: includes core social deficits, sensorimotor coordination, Purkinje cell loss, P2Y2 and P2X7 expression (Naviaux et al. 2013)

## Cc1ccc(C(=O)Nc2ccc(S(=O)(=O)O)c3cc(S(=O)(=O)O)cc(S(=O)(=O)O)c23)cc1NC(=O)c1cccc(NC(=O)Nc2cccc(C(=O)Nc3cc(C(=O)Nc4ccc(S(=O)(=O)O)c5cc(S(=O)(=O)O)cc(S(=O)(=O)O)c45)ccc3C)c2)c1 [suramin, Suramin]
  multisystem abnormalities that defined the ASD-like phenotype corrected: 16
